According to EPA's ToxRefDB 2:

Experiments:
dog = details: Sub-acute repeat dose toxicity, beagle, Oral, Gavage/Intubation, dose end: 4 week, group: systemic
mouse = details: Subchronic oral toxicity in rodents, cd1, Gavage/Intubation, dose end: 90 day, group: systemic
rabbit [1] = details: Prenatal developmental toxicity study, himalayan, Oral, Gavage/Intubation, dose end: 18 GD
rabbit [2] = details: Prenatal developmental toxicity study; himalayan; Oral; Gavage/Intubation; dose end: 18 GD; group: maternal; systemic / in life observation / body weight / body weight gain + systemic / in life observation / food consumption / food consumption
rat [3] = details: Sub-acute repeat dose toxicity, sprague dawley, Oral, Gavage/Intubation, dose end: 4 week, group: systemic
rat [4] = details: Prenatal developmental toxicity study, sprague dawley, Oral, Gavage/Intubation, dose end: 18 GD
rat [5] = details: Prenatal developmental toxicity study, sprague dawley, Oral, Gavage/Intubation, dose end: 18 GD; remark: listed apart in the source
rat [6] = details: Combined chronic toxicity/carcinogenicity; sprague dawley; Oral; Feed; dose end: 104 week; group: systemic; systemic / in life observation / clinical signs / convulsions
rat [7] = details: Subchronic oral toxicity in rodents, sprague dawley, Feed, dose end: 90 day, group: systemic, systemic / in life observation / body weight / body weight + systemic / in life observation / body weight / body weight gain + systemic / in…
[8] = systemic / clinical chemistry / alkaline phosphatase (alp/alk) / alkaline phosphatase (alp/alk) + systemic / hematology / blood clotting / …
[9] = systemic / hematology / blood clotting / blood clotting - prothrombin time + systemic / hematology / reticulocyte / reticulocyte
[10] = systemic / in life observation / body weight / body weight + systemic / organ weight / brain / relative to body weight + systemic / organ …
[11] = systemic / in life observation / body weight / body weight + systemic / organ weight / liver / relative to body weight + systemic / …
[12] = group: developmental, developmental / developmental malformation / bone / delayed ossification + developmental / developmental malformation / lung / [other]
[13] = group: developmental, developmental / developmental malformation / bone / delayed ossification + developmental / developmental malformation / lung / [other] + …
[14] = group: maternal, systemic / in life observation / body weight / body weight + systemic / in life observation / food consumption / food consumption
[15] = systemic / hematology / hematocrit (hct) / hematocrit (hct) + systemic / hematology / hemoglobin (hgb) / hemoglobin (hgb)
[16] = systemic / hematology / hematocrit (hct) / hematocrit (hct) + systemic / hematology / hemoglobin (hgb) / hemoglobin (hgb) + systemic / in …
[17] = group: developmental, developmental / developmental malformation / bone / incomplete ossification
[18] = group: maternal, systemic / in life observation / body weight / body weight + systemic / in life observation / food consumption / food consumption + systemic…
[19] = group: developmental, systemic / in life observation / body weight / fetal weight

**Q.** What does the source list for `OC12N=C(c3ccccc3)SC1Cc1cc(Cl)ccc12` (stereo not drawn) [HMR1426]?
**A.** LOAEL (dog; [8]): > 630 mg/kg/day; NOAEL (dog; [8]): ≥ 630 mg/kg/day; LEL (dog; [9]): 63 mg/kg/day; NEL (dog; [9]): < 63 mg/kg/day; LOAEL (mouse; [10]): > 1600 mg/kg/day; NOAEL (mouse; [10]): ≥ 1600 mg/kg/day; LEL (mouse; [11]): 400 mg/kg/day; NEL (mouse; [11]): < 400 mg/kg/day; LEL (rabbit [1]; [12]): 62.5 mg/kg/day; NEL (rabbit [1]; [12]): < 62.5 mg/kg/day; LOAEL (rabbit [1]; [13]): > 1000 mg/kg/day; NOAEL (rabbit [1]; [13]): ≥ 1000 mg/kg/day; LEL (rabbit [1]; [14]): 62.5 mg/kg/day; LOAEL (rabbit [1]; [14]): > 1000 mg/kg/day; NEL (rabbit [1]; [14]): < 62.5 mg/kg/day; NOAEL (rabbit [1]; [14]): ≥ 1000 mg/kg/day; LEL (rabbit [2]): 500 mg/kg/day; LOAEL (rabbit [2]): > 1000 mg/kg/day; NEL (rabbit [2]): < 500 mg/kg/day; NOAEL (rabbit [2]): ≥ 1000 mg/kg/day; LEL (rat [3]; [15]): 31.5 mg/kg/day; NEL (rat [3]; [15]): < 31.5 mg/kg/day; LOAEL (rat [3]; [16]): 315 mg/kg/day; NOAEL (rat [3]; [16]): 31.5 mg/kg/day; LEL (rat [4]; [17]): 315 mg/kg/day; LOAEL (rat [4]; [17]): 315 mg/kg/day; NEL (rat [4]; [17]): 100 mg/kg/day; NOAEL (rat [4]; [17]): 100 mg/kg/day; LEL (rat [4]; [14]): 100 mg/kg/day; NEL (rat [4]; [14]): < 100 mg/kg/day; LOAEL (rat [4]; [18]): 315 mg/kg/day; NOAEL (rat [4]; [18]): 100 mg/kg/day; LEL (rat [5]; [19]): 1000 mg/kg/day; LOAEL (rat [5]; [19]): 1000 mg/kg/day; NEL (rat [5]; [19]): 500 mg/kg/day; NOAEL (rat [5]; [19]): 500 mg/kg/day; LEL (rat [5]; [14]): 500 mg/kg/day; LOAEL (rat [5]; [14]): 500 mg/kg/day; NEL (rat [5]; [14]): < 500 mg/kg/day; NOAEL (rat [5]; [14]): < 500 mg/kg/day

**Q.** For `N#Cc1nn(-c2c(Cl)cc(C(F)(F)F)cc2Cl)c(N)c1C(F)(F)F` [Fipronil-desulfinyl], which LEL (rat [6]) is on record?
**A.** The LEL was 0.032 mg/kg/day.

**Q.** And the LOAEL (rat [6])?
**A.** Its LOAEL is 0.032 mg/kg/day.

**Q.** What about the NEL (rat [6]) of the same compound?
**A.** The NEL was less than 0.032 mg/kg/day.

**Q.** And the NOAEL (rat [6])?
**A.** Its NOAEL is less than 0.032 mg/kg/day.

**Q.** And the LEL (rat [7])?
**A.** The LEL was 0.594 mg/kg/day.

**Q.** What about the LOAEL (rat [7]) of the same compound?
**A.** Its LOAEL is 0.594 mg/kg/day.

**Q.** And the NEL (rat [7])?
**A.** The NEL was 0.177 mg/kg/day.

**Q.** And the NOAEL (rat [7])?
**A.** Its NOAEL is 0.177 mg/kg/day.
